In US10202371B2, “Oxazolidin-2-one-pyrimidine derivatives and the use thereof as phosphatidylinositol-3-kinase inhibitors” (Novartis AG, priority 2012, dated 2019):
pIC50: −log10 of the molar value. Read-outs that look alike come from different tables or passages of the source.

What was measured:
[1] = In vitro skin penetration and permeation, pig skin in Franz-type diffusion cells; assay type: in vitro ADME; settings: for Permeation rate: pig skin, 48 hours exposure
Procedure: The compound was applied as 0.5% solutions in propylene glycol mixed with either ethanol or oleylalcohol to pig skin mounted in static Franz-type diffusion cells. At the end of a 48 hours exposure time, drug concentrations were measured in the skin (after removal of stratum corneum) and in the receiver. The receiver solution is a mixture of two volume parts of phosphate-buffered saline (PBS) and one volume part of fetal calf serum (FCS).

[2] = system: HaCaT keratinocyte cell line; test: BrdU cell proliferation assay HaCaT keratinocytes; assay type: cell-based; settings: Homo sapiens, BrdU incorporation
Procedure: Cells of SCC or keratinocyte lines (Detroit562, SCC12B2, SCL1, HaCaT) were used for the proliferation assays when they had reached about 80% to 90% confluency. Cells were then harvested after trypsin-mediated dislodgement from culture flasks, washed in culture medium containing 10% FCS, counted in a hemocytometer and diluted complete culture medium with 5% FCS to obtain a cell density of 5×10^4 cells/ml. 100 μl of this cell suspension (e.g. 5000 cells) were transferred into each well of a 96-well white walled tissue culture plate (Corning-Costar article #3917). Cells were then allowed to settle by placing them in the CO2 incubator for 45 to 60 minutes. Subsequently, a volume of 100 μl of culture medium containing twice the desired final concentration of the test compound was added to each well of quadruplicate wells. […] The cell proliferation was determined on the basis of incorporation of bromodesoxy-uridin (BrdU) into cellular DNA using the chemiluminescent BrdU Cell Proliferation ELISA (Roche article #11 669 915 001). […] Incorporation of BrdU into the DNA was detected by BrdU-specific antibodies and quantified on the basis of an antibody-coupled luciferase mediated signal generation. The luminescence emission was measured in a Victor light 1420 Luminescence counter, (Perkin Elmer) and expressed as relative luminescence units (e.g. data points given as RLU/s) per second. […]

[3] = system: Detroit562 cells; test: BrdU cell proliferation assay Detroit562; assay type: cell-based; settings: Homo sapiens, Detroit 562, BrdU incorporation
Text: The SCL-1 and SCC12B2 are human cutaneous squamous cell carcinoma (SCC) cell lines derived from naturally occurring, poorly differentiated SCCs. The SCL-1 cell line was originally established in the lab of N. Fusenig at the Cancer Research Center in Heidelberg, and its growth characteristics in vitro in comparison to normal keratinocytes were described previously (Neely et al 1991). The SCC12B2 cell line was established as described previously (Rheinwald & Beckett 1981) from the facial skin of a transplant patient who received immunosuppressive therapy for 7 years. The human SCC cell line Detroit562 was obtained from American Tissue Culture Collection (ATCC). Detroit562 is referred to as Head & Neck squamous cell carcinomas (HNSCC) and was derived from a pharyngeal SCC tumor. […]
Cells of SCC or keratinocyte lines (Detroit562, SCC12B2, SCL1, HaCaT) were used for the proliferation assays when they had reached about 80% to 90% confluency. Cells were then harvested after trypsin-mediated dislodgement from culture flasks, washed in culture medium containing 10% FCS, counted in a hemocytometer and diluted complete culture medium with 5% FCS to obtain a cell density of 5×10^4 cells/ml. […] The cell proliferation was determined on the basis of incorporation of bromodesoxy-uridin (BrdU) into cellular DNA using the chemiluminescent BrdU Cell Proliferation ELISA (Roche article #11 669 915 001). […]

Compound: C[C@H]1[C@H](c2nccs2)OC(=O)N1c1cc(-c2cnc(N)nc2C(F)(F)F)nc(N2CCOCC2)n1 [Example 1, (4S,5R)-3-(2′-Amino-2-morpholin-4-yl-4′-trifluoromethyl-[4,5′]bipyrimidinyl-6-yl)-4-methyl-5-thiazol-2-yl-oxazolidin-2-one]
- permeation rate through pig skin (in words) ([1]; pig skin in vitro): low
- Permeation rate ([1]; 0.5% in PG + ethanol (7 + 3)): 1.0 ± 0.3 ng/cm^2/hr
- Permeation rate ([1]; 0.5% in PG/OA (9 + 1)): 301.1 ± 129.5 ng/cm^2/hr
- pIC50 ([2]; measurement #1, read-out: anti-proliferative IC50 HaCaT measurement #1): 6.55
- pIC50 ([2]; measurement #2, read-out: anti-proliferative IC50 HaCaT measurement #2): 6.53
- pIC50 ([3]; measurement #1, read-out: anti-proliferative IC50 Detroit562 measurement #1): 6.22
- pIC50 ([3]; measurement #2, read-out: anti-proliferative IC50 Detroit562 measurement #2): 6.36
